PubChem BioAssay AID180 (DTP/NCI, 2004)
Several values for one entry are separate records, joined by “and”; a condition that tells them apart may be missing. Identical values can stand only once.

Tested on: BDF1 mice, Adenocarcinoma 755 s.c., tumor weight T/C
Experiment: NCI In Vivo Anticancer Drug Screen. Data for tumor model Adenocarcinoma 755 (subcutaneous) in B6D2F1 (BDF1) mice
Conditions: endpoint: mean tumor weight, higher = larger tumour
Procedure, shortened: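 Values express treated (T) relative to vehicle-dosed control (C) animals, based on survival or tumour size measured after compound treatment of mice bearing a transplanted tumour.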

[1] = dose: 3.7 mg/kg/injection, schedule: Q01DX011 (ip), vehicle: carboxymethylcellulose (CMC)
[2] = dose: 7.5 mg/kg/injection, schedule: Q01DX011 (ip), vehicle: methylcellulose (MC)
[3] = dose: 15.0 mg/kg/injection, schedule: Q01DX011 (ip), vehicle: methylcellulose (MC)
[4] = dose: 50.0 mg/kg/injection, schedule: Q01DX011 (ip), vehicle: other
[5] = dose: 100.0 mg/kg/injection, schedule: Q01DX011 (ip), vehicle: other
[6] = dose: 100.0 mg/kg/injection, schedule: Q01DX011 (ip), vehicle: saline
[7] = dose: 200.0 mg/kg/injection, schedule: Q01DX011 (ip), vehicle: other
[8] = dose: 15.0 mg/kg/injection, schedule: Q01DX011 (ip), vehicle: carboxymethylcellulose (CMC)
[9] = dose: 25.0 mg/kg/injection, schedule: Q01DX011 (ip), vehicle: carboxymethylcellulose (CMC)
[10] = dose: 100.0 mg/kg/injection, schedule: Q01DX011 (ip), vehicle: carboxymethylcellulose (CMC)
[11] = dose: 7.0 mg/kg/injection, schedule: Q01DX011 (ip), vehicle: saline
[12] = dose: 14.0 mg/kg/injection, schedule: Q01DX011 (ip), vehicle: saline
[13] = dose: 28.0 mg/kg/injection, schedule: Q01DX011 (ip), vehicle: saline

## C/C(=N\NC(=O)c1ccncc1)c1cccc(Br)c1
dose: 0.9 mg/kg/injection, schedule: Q01DX011 (ip), vehicle: carboxymethylcellulose (CMC)
  T/C: 116 % of control
[1]
  T/C: 154 % of control
[2]
  T/C: 34 % of control and 57 % of control
[3]
  T/C: 65 % of control and 87 % of control

## CCOCCNc1ncnc2c1cnn2C
dose: 12.5 mg/kg/injection, schedule: Q01DX011 (ip), vehicle: methylcellulose (MC)
  T/C: 112 % of control
dose: 25.0 mg/kg/injection, schedule: Q01DX011 (ip), vehicle: methylcellulose (MC)
  T/C: 65 % of control
dose: 50.0 mg/kg/injection, schedule: Q01DX011 (ip), vehicle: methylcellulose (MC)
  T/C: 38 % of control
dose: 100.0 mg/kg/injection, schedule: Q01DX011 (ip), vehicle: methylcellulose (MC)
  T/C: 17 % of control

## Clc1ccc(CSc2ncnc3c2ncn3C2CCCCO2)cc1 (stereo not drawn)
dose: 20.0 mg/kg/injection, schedule: Q01DX011 (ip), vehicle: methylcellulose (MC)
  T/C: 84 % of control
dose: 65.0 mg/kg/injection, schedule: Q01DX011 (ip), vehicle: methylcellulose (MC)
  T/C: 31 % of control

## NC(=O)NOC(=O)c1ccccc1
[4]
  T/C: 57 % of control
dose: 50.0 mg/kg/injection, schedule: Q01DX011 (ip), vehicle: saline
  T/C: 86 % of control
[5]
  T/C: 28 % of control
[6]
  T/C: 75 % of control
[7]
  T/C: 21 % of control
dose: 200.0 mg/kg/injection, schedule: Q01DX011 (ip), vehicle: saline
  T/C: 94 % of control
dose: 400.0 mg/kg/injection, schedule: Q01DX011 (ip), vehicle: saline
  T/C: 92 % of control

## C#CCn1cnc2c(Cl)ncnc21
dose: 5.0 mg/kg/injection, schedule: Q01DX011 (ip), vehicle: carboxymethylcellulose (CMC)
  T/C: 61 % of control
[8]
  T/C: 48 % of control
[9]
  T/C: 13 % of control
dose: 35.0 mg/kg/injection, schedule: Q01DX011 (ip), vehicle: carboxymethylcellulose (CMC)
  T/C: 14 % of control
dose: 50.0 mg/kg/injection, schedule: Q01DX011 (ip), vehicle: carboxymethylcellulose (CMC)
  T/C: 8 % of control
[10]
  T/C: 3 % of control

## CCN(CC)CCC(=O)N1CCN(C(=O)CCN(CC)CC)CC1
dose: 3.8 mg/kg/injection, schedule: Q01DX011 (ip), vehicle: methylcellulose (MC)
  T/C: 110 % of control
[2]
  T/C: 113 % of control
[3]
  T/C: 71 % of control
dose: 30.0 mg/kg/injection, schedule: Q01DX011 (ip), vehicle: methylcellulose (MC)
  T/C: 79 % of control
dose: 30.0 mg/kg/injection, schedule: Q01DX011 (ip), vehicle: saline
  T/C: 119 % of control
dose: 60.0 mg/kg/injection, schedule: Q01DX011 (ip), vehicle: saline
  T/C: 105 % of control

## NC(=O)N(CCCl)N=O
dose: 0.23 mg/kg/injection, schedule: Q01DX011 (ip), vehicle: methylcellulose (MC)
  T/C: 54 % of control and 59 % of control
dose: 0.9 mg/kg/injection, schedule: Q01DX011 (ip), vehicle: methylcellulose (MC)
  T/C: 34 % of control and 38 % of control
dose: 1.8 mg/kg/injection, schedule: Q01DX011 (ip), vehicle: methylcellulose (MC)
  T/C: 27 % of control

## NC1=CC(=O)c2cccnc2C1=O
dose: 6.5 mg/kg/injection, schedule: Q01DX011 (ip), vehicle: water
  T/C: 111 % of control
dose: 10.0 mg/kg/injection, schedule: Q01DX011 (ip), vehicle: water
  T/C: 87 % of control
dose: 15.0 mg/kg/injection, schedule: Q01DX011 (ip), vehicle: water
  T/C: 69 % of control

## CCCCNP(=O)(N1CC1C)N1CC1C (stereo not drawn)
[11]
  T/C: 53 % of control
[12]
  T/C: 53 % of control
[13]
  T/C: 25 % of control
dose: 56.0 mg/kg/injection, schedule: Q01DX011 (ip), vehicle: saline
  T/C: 1 % of control

## CC(=O)NCCc1ccccc1
dose: 12.5 mg/kg/injection, schedule: Q01DX011 (ip), vehicle: other
  T/C: 106 % of control
dose: 25.0 mg/kg/injection, schedule: Q01DX011 (ip), vehicle: other
  T/C: 71 % of control
[4]
  T/C: 99 % of control
[5]
  T/C: 87 % of control
[7]
  T/C: 59 % of control
dose: 400.0 mg/kg/injection, schedule: Q01DX011 (ip), vehicle: other
  T/C: 49 % of control

## Cc1ccccc1CNc1ncnc2[nH]ncc12
dose: 5.0 mg/kg/injection, schedule: Q01DX011 (ip), vehicle: saline
  T/C: 79 % of control
dose: 10.0 mg/kg/injection, schedule: Q01DX011 (ip), vehicle: saline
  T/C: 60 % of control
dose: 25.0 mg/kg/injection, schedule: Q01DX011 (ip), vehicle: saline
  T/C: 29 % of control
[6]
  T/C: 4 % of control
dose: 125.0 mg/kg/injection, schedule: Q01DX011 (ip), vehicle: saline
  T/C: 9 % of control

## CN(Cc1cnc2nc(NCNC(=O)C3=C(O)[C@@]4(O)C(=O)C5=C(O)c6c(O)cccc6[C@@](C)(O)[C@H]5C[C@H]4[C@H](N(C)C)C3=O)nc(N)c2n1)c1ccc(C(=O)NC(CCC(=O)O)C(=O)O)cc1 (stereo partly drawn)
dose: 1.5 mg/kg/injection, schedule: Q01DX011 (ip), vehicle: saline
  T/C: 109 % of control
dose: 3.0 mg/kg/injection, schedule: Q01DX011 (ip), vehicle: saline
  T/C: 103 % of control
dose: 6.0 mg/kg/injection, schedule: Q01DX011 (ip), vehicle: saline
  T/C: 69 % of control

## Oc1ccc2ccccc2c1N=Nc1ccc(N=Nc2ccccc2)cc1
[9]
  T/C: 121 % of control
[10]
  T/C: 116 % of control
dose: 200.0 mg/kg/injection, schedule: Q01DX011 (ip), vehicle: carboxymethylcellulose (CMC)
  T/C: 108 % of control

## CCN(CC)CCOc1ccc(C2=C(c3ccccc3)CCc3cc(OC)ccc32)cc1
dose: 25.0 mg/kg/injection, schedule: Q01DX011 (sc), vehicle: steriod suspending solution
  T/C: 48 % of control
dose: 50.0 mg/kg/injection, schedule: Q01DX011 (sc), vehicle: steriod suspending solution
  T/C: 32 % of control

## C=C(Br)CN(C)CCO
[4]
  T/C: 85 % of control
[5]
  T/C: 76 % of control
[7]
  T/C: 53 % of control

## CC1CCC(n2cnc3c(=S)nc[nH]c32)O1 (stereo not drawn)
dose: 1.8 mg/kg/injection, schedule: Q01DX011 (ip), vehicle: carboxymethylcellulose (CMC)
  T/C: 86 % of control
[1]
  T/C: 12 % of control
dose: 7.5 mg/kg/injection, schedule: Q01DX011 (ip), vehicle: carboxymethylcellulose (CMC)
  T/C: 3 % of control
[8]
  T/C: 3 % of control

## CC(=O)NNC(=O)c1ccccn1
dose: 75.0 mg/kg/injection, schedule: Q01DX011 (ip), vehicle: water
  T/C: 68 % of control
dose: 100.0 mg/kg/injection, schedule: Q01DX011 (ip), vehicle: water
  T/C: 37 % of control

## CC(C)OC(=O)C1(N)CCCC1
dose: 3.5 mg/kg/injection, schedule: Q01DX011 (ip), vehicle: carboxymethylcellulose (CMC)
  T/C: 43 % of control
dose: 7.0 mg/kg/injection, schedule: Q01DX011 (ip), vehicle: carboxymethylcellulose (CMC)
  T/C: 55 % of control
[11]
  T/C: 95 % of control
dose: 14.0 mg/kg/injection, schedule: Q01DX011 (ip), vehicle: carboxymethylcellulose (CMC)
  T/C: 55 % of control
[12]
  T/C: 96 % of control
[13]
  T/C: 34 % of control and 58 % of control
dose: 56.0 mg/kg/injection, schedule: Q01DX011 (ip), vehicle: carboxymethylcellulose (CMC)
  T/C: 42 % of control
dose: 113.0 mg/kg/injection, schedule: Q01DX011 (ip), vehicle: saline
  T/C: 6 % of control
dose: 120.0 mg/kg/injection, schedule: Q01DX011 (ip), vehicle: other
  T/C: 10 % of control

## Cn1c(N)nc2nc[nH]c2c1=O
dose: 9.3 mg/kg/injection, schedule: Q01DX011 (ip), vehicle: methylcellulose (MC)
  T/C: 79 % of control
dose: 18.7 mg/kg/injection, schedule: Q01DX011 (ip), vehicle: methylcellulose (MC)
  T/C: 68 % of control
dose: 37.5 mg/kg/injection, schedule: Q01DX011 (ip), vehicle: methylcellulose (MC)
  T/C: 29 % of control

## CC(=O)c1cccc(NC2C(N)C(NC(=O)N(C)C)(C(C)O)C(C)(O)C2(O)COC(=O)c2c(C)cccc2O)c1 (stereo not drawn)
dose: 0.25 mg/kg/injection, schedule: Q01DX011 (ip), vehicle: saline
  T/C: 36 % of control
dose: 0.5 mg/kg/injection, schedule: Q01DX011 (ip), vehicle: saline
  T/C: 83 % of control
dose: 1.0 mg/kg/injection, schedule: Q01DX011 (ip), vehicle: saline
  T/C: 67 % of control
dose: 2.0 mg/kg/injection, schedule: Q01DX011 (ip), vehicle: saline
  T/C: 24 % of control
